{"source": "patent US20210230213A1", "about": "“ARAMCHOL SALTS” (GALMED RESEARCH AND DEVELOPMENT LTD., priority 2013, published 2021)", "key": {"[1]": {"test": "In vivo permeability / PK after intrajejunal administration in cannulated rats (Example 7)", "parameters": "species or system male Wistar rats", "settings": "rat", "experimental": "An in vivo permeability study of Aramchol salts was performed in male Wistar rats cannulated in the jugular vein and in the jejunum. Intestinal cannulation was performed in order to bypass protonation of Aramchol salts in acidic gastric pH. Aramchol salts solubilized in PBS (30 mg/mL) were administered to rats intestine (jejunum) in a dose of 100 mg/kg (based on free acid), via a cannula inserted into the proximal side of the jejunum. A suspension of Aramchol free acid (in PBS, 30 mg/mL) was administered via the same route and was used as control. Blood samples were withdrawn via a cannula inserted into jugular vein at pre-determined time points (pre-dose, 1 hr, 2 hr, 4 hr, 8 hr, 12 hr, 24 hr post dose). Plasma concentrations of Aramchol (free acid) were measured using a liquid chromatography-tandem mass spectrometry (LC-MS-MS) method by Analyst Bioanalytical Laboratories, Israel. All PK parameters were calculated using non-compartmental analysis. Only those plasma concentrations equal to or greater than the lower limit of quantitation (LOQ) (48.66 ng/mL) were used in the analysis. Plasma concentrations <LOQ that occurred from pre-dose to the first concentration ≥LOQ were treated as 0. Actual sampling times were used for all pharmacokinetic analyses. The following PK parameters were calculated: maximum plasma concentration (Cmax), time to Cmax (Tmax), area under the plasma concentration-time curve from time of administration until the last plasma concentration (AUC0-4), AUC/dose, elimination half-life (t½). Cmax and Tmax were taken directly from the data. Area under the curve from zero to the final sample with a concentration ≥LOQ. AUC0-4 was calculated using the linear trapezoidal method."}, "[2]": {"test": "Twice daily administration for 10 days of Aramchol and Aramchol meglumine in humans (Example 9)", "format": "in vivo", "settings": "free acid 300 mg, meglumine salt 383 mg", "experimental": "300 mg aramchol free acid were administered to human subjects twice daily, and 383 mg aramchol meglumine salt were administered to human subjects twice daily, as detailed in FIG. 13."}, "[3]": {"test": "Fill weight of size 00 HPMC capsule", "format": "physicochemical", "settings": "hard HPMC capsule size 00, filled as is without tapping", "text": "Aramchol (free acid), and the three salts were filled as are, into hard HPMC (Hypromellose; Capsule size 00 (CapsCanada, ON, Canada) without taping, fill weight is presented in table 9."}, "[4]": {"test": "Clinical study, plasma Aramchol at steady state after 300 mg BID", "format": "in vivo, humans", "settings": "human, po"}, "[5]": {"test": "Solubility of Aramchol (free acid) in aqueous media", "format": "physicochemical"}, "[6]": {"test": "Stability of Aramchol free acid", "format": "physicochemical", "settings": "6 months 40° C./75% RH; 12 months 25° C./60% RH; 30° C./65% RH", "experimental": "For Aramchol free acid, 6 months stability data have been generated at 40° C./75% relative humidity and for 12 months at real time 25° C./60% relative humidity and also at the intermediate conditions of 30° C./65% relative humidity."}, "[7]": {"test": "Bulk and tapped density", "format": "physicochemical", "text": "Measurements of tapped and bulk densities are used to predict the flow properties and compressibility of powders. These two properties are important for manufacture of solid dosage formulations, such as tablets and capsules. Compounds with low values of tapped and bulk densities may be subject to difficulties in tablet compression, and therefore may require additional processing for improving flow properties. […] Therefore, to improve flow properties a wet granulation process is used prior to tablet compression."}, "[8]": {"test": "Saturated solubility in buffer solutions and bio-relevant media at 37° C. (Example 6)", "format": "physicochemical", "settings": "for solubility at 24 h / solubility at 30 min: thermodynamic from solid"}, "[9]": {"test": "in vivo", "settings": "dog, in vivo", "experimental": "Capsules containing 100 mg of Aramchol were dosed to dogs as either the free acid or the meglumine salt.\nThe complete data-set across all animals and time-points for each dose form (free acid or meglumine salt) were fit to single compartment PK models with first order rate of absorption Ka (h−1) and elimination parameterised by CL and V (rate of elimination=CL/V, h−1). For the meglumine salt group, the first dose data for M5 was removed.\nCapsules containing 100 mg of Aramchol were dosed to dogs as either the free acid or the meglumine salt BID. […] A clinical study that investigated the plasma concentration of Aramchol after oral dosing of 300 mg BID at steady state was conducted in 16 healthy volunteers."}}, "data": [{"smiles": "CCCCCCCCCCCCCCCCCCCC(=O)N[C@H]1CCC2(C)C(CC(O)C3C2C[C@H](O)C2(C)C(C(C)CCC(=O)O)CCC32)C1", "note": "(stereo in doubt) [Aramchol (free acid), 3β-arachidylamido-7α,12α-dihydroxy-5β-cholan-24-oic acid, reference compound]", "values": [{"measurement": "Half-life", "setting": "[1]; male, Wistar, plasma, 100 mg/kg, mean ± standard error", "value": 4.5, "unit": "h"}, {"measurement": "AUC(0-t)", "setting": "[1]; male, Wistar, plasma, 100 mg/kg, mean ± standard error, read-out: AUC 0-t", "value": "12.1 ± 3.63", "unit": "µg·h/mL"}, {"measurement": "Tmax", "setting": "[1]; male, Wistar, plasma, 100 mg/kg, median, read-out: Tmax", "value": 4, "unit": "h"}, {"measurement": "Cmax", "setting": "[1]; male, Wistar, 100 mg/kg (based on free acid) in PBS 30 mg/mL, plasma Aramchol (free acid), mean ± standard error, read-out: Cmax", "value": "1360 ± 359", "unit": "ng/mL"}, {"measurement": "AUC/dose", "setting": "[1]; 100 mg/kg, mean ± standard error", "value": "124.2 ± 38.9 (5) hr × ng × kg/mL × mg"}, {"measurement": "AUCss 0-12 h", "setting": "[2]; BID for 10 days", "value": 53, "unit": "µg·h/mL"}, {"measurement": "Cavg", "setting": "[2]; BID for 10 days", "value": 4154, "unit": "ng/mL"}, {"measurement": "AUC", "setting": "[2]; human, blood, BID", "value": 53, "unit": "µg·h/mL"}, {"measurement": "fill weight of one 00 size capsule", "setting": "[3]", "value": 0.15, "unit": "gram"}, {"measurement": "AUC", "setting": "[4]", "value": 114, "unit": "µg·h/mL"}, {"measurement": "solubility", "setting": "[5]; FeSSIF, pH 5, fessif, read-out: max solubility in FeSSIF", "value": 660, "unit": "µg/mL"}, {"measurement": "solubility", "setting": "[5]; aqueous buffer, buffer pH 6.0, read-out: solubility in buffer at pH 6.0", "value": "< 1", "unit": "µg/mL"}, {"measurement": "stability", "setting": "[6]", "value": "no significant changes to any parameters"}, {"measurement": "Bulk density", "setting": "[7]", "value": 0.15, "unit": "g/mL"}, {"measurement": "Tapped density", "setting": "[7]", "value": 0.17, "unit": "g/mL"}, {"measurement": "solubility", "setting": "[8]; Acetate buffer pH 4.5, 24 h, 37° C.", "value": "Not soluble"}, {"measurement": "solubility", "setting": "[8]; Demi-Water (pH 7.8), 24 h, 37° C.", "value": "Not soluble"}, {"measurement": "solubility", "setting": "[8]; HCl buffer pH 1.2, 24 h, 37° C.", "value": "Not soluble"}, {"measurement": "solubility", "setting": "[8]; Phosphate buffer pH 7.0, 24 h, 37° C.", "value": "Not soluble"}, {"measurement": "solubility", "setting": "[8]; Saline pH 5.5, 24 h, 37° C.", "value": "Not soluble"}, {"measurement": "solubility at 24 h", "setting": "[8]; phosphate buffer, pH 6.5, 24 h", "value": "< 1", "unit": "µg/mL"}, {"measurement": "solubility at 30 min", "setting": "[8]; FaSSIF (pH 6.5), 37° C.", "value": 50, "unit": "µg/mL"}, {"measurement": "solubility at 24 h", "setting": "[8]; FaSSIF (pH 6.5), 24 h, 37° C.", "value": 130, "unit": "µg/mL"}, {"measurement": "solubility at 30 min", "setting": "[8]; FeSSIF (pH 5.0), 37° C.", "value": 660, "unit": "µg/mL"}, {"measurement": "solubility at 24 h", "setting": "[8]; FeSSIF (pH 5.0), 24 h, 37° C.", "value": 310, "unit": "µg/mL"}, {"measurement": "AUC0-12 h/AUCinf", "setting": "[9]", "value": 0.97}, {"measurement": "Ka", "setting": "[9]", "value": 0.234, "unit": "h⁻¹"}, {"measurement": "V", "setting": "[9]", "value": 16893}, {"measurement": "clearance", "setting": "[9]", "value": 6.82, "unit": "mL/min"}, {"measurement": "AUC", "setting": "[9]; 100 mg", "value": 901, "unit": "µg·h/mL"}, {"measurement": "AUC(0-inf)", "setting": "[9]; AUCinf D1", "value": 241, "unit": "µg·h/mL"}, {"measurement": "AUC(0-inf)", "setting": "[9]; AUCinf from day 11 onwards", "value": 1130, "unit": "µg·h/mL"}, {"measurement": "Half-life", "setting": "[9]; po, 100 mg, Half-life", "value": 25.9, "unit": "h"}]}]}
